Measured values as given in patent publication US20100267561A1, “HERBICIDAL PYRIDAZINONE DERIVATIVES” (priority 2007, published 2010).

Experiments:
Assay type in all cases: in vivo
[1] = test system: Russian thistle (Salsola iberica); assay: Test B pre-/postemergence plant response; settings: Preemergence
In short: (§1)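 Visual scoring from 0 (no effect) to 100 (complete control) against untreated controls was done 13 to 15 days after greenhouse treatment. Chemicals were formulated in a surfactant-containing non-phytotoxic solvent and applied to soil preemergence or to 1- to 4-leaf (2-18 cm) plants postemergence.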

[2] = test system: catchweed bedstraw (Galium aparine); assay: Test B pre-/postemergence plant response; settings: Preemergence
In short: as §1

[3] = test system: cocklebur (Xanthium strumarium); assay: Test B pre-/postemergence plant response; settings: for Cocklebur plant response rating: 8 g ai/ha
In short: as §1

[4] = test system: common (oilseed) sunflower (Helianthus annuus); assay: Test B pre-/postemergence plant response; settings: Preemergence
In short: as §1

[5] = test system: downy bromegrass (Bromus tectorum); assay: Test B pre-/postemergence plant response; settings: for Bromegrass, Downy plant response rating: 8 g ai/ha
In short: as §1

[6] = test system: goosegrass (Eleusine indica); assay: Test B pre-/postemergence plant response
In short: as §1

[7] = test system: green foxtail (Setaria viridis); assay: Test B pre-/postemergence plant response
In short: as §1

[8] = test system: large crabgrass (Digitaria sanguinalis); assay: Test B pre-/postemergence plant response
In short: as §1

[9] = test system: pigweed (Amaranthus retroflexus); assay: Test B pre-/postemergence plant response
In short: as §1

[10] = test system: soybean (Glycine max); assay: Test B pre-/postemergence plant response
In short: as §1

[11] = test system: velvetleaf (Abutilon theophrasti); assay: Test B pre-/postemergence plant response
In short: as §1

[12] = test system: wheat (Triticum aestivum); assay: Test B pre-/postemergence plant response
In short: as §1

[13] = test system: woolly cupgrass (Eriochloa villosa); assay: Test B pre-/postemergence plant response
In short: as §1

[14] = test system: rice (Oryza sativa); assay: Test B flooded paddy test plant response
In short: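 Paddy-water application to 2-leaf plants in pots held under 3 cm of flooding; response is a 0–100 visual control rating against controls after 13 to 15 days, and a dash marks a missing result.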

[15] = 31 g ai/ha, scale 0 to 100 (0 no effect, 100 complete control)
[16] = Postemergence, 16 g ai/ha, scale 0 to 100
[17] = Postemergence, 31 g ai/ha, scale 0 to 100
[18] = Postemergence, 62 g ai/ha, scale 0 to 100, 0 no effect, 100 complete control
[19] = Preemergence, 16 g ai/ha, scale 0 to 100 (0 no effect, 100 complete control)
[20] = Preemergence, 31 g ai/ha, 0 to 100 scale, 0 no effect, 100 complete control
[21] = Preemergence, 62 g ai/ha, scale 0 to 100
[22] = 8 g ai/ha, postemergence, 0-100 scale
[23] = Preemergence, 8 g ai/ha, scale 0 to 100
[24] = Preemergence, 16 g ai/ha, scale 0 to 100
[25] = Preemergence, 31 g ai/ha, scale 0 to 100 (0 no effect, 100 complete control)
[26] = Preemergence, 62 g ai/ha, 0 to 100 scale, 0 no effect, 100 complete control
[27] = Flood (flooded paddy test), 62 g ai/ha, scale 0 to 100, 0 no effect, 100 complete control
[28] = Flood (flooded paddy test), 250 g ai/ha, scale 0 to 100, 0 no effect, 100 complete control

Cc1cc(-c2ccc(Cl)cc2)nn1-c1c(OC(=O)Oc2ccccc2)cnn(C)c1=O [Compound 54]
30: Plant response rating, Wheat [12, 16]
70: Plant response rating, Bromegrass, Downy [5, 18] | Plant response rating, Bromegrass, Downy [5, 20] | Plant response rating, Goosegrass [6, 17] | Foxtail, Green plant response rating [7, 22]
85: Plant response rating, Bromegrass, Downy [5, 21] | Plant response rating, Crabgrass, Large [8, 16]
60: Plant response rating, Wheat [12, 17] | Plant response rating, Wheat [12, 18]
10: Plant response rating, Wheat [12, 25]
100: Plant response rating, Foxtail, Green [7, 18] | Plant response rating, Foxtail, Green [7, 20] | Plant response rating, Foxtail, Green [7, 21] | Plant response rating, Cupgrass, Woolly [13, 18]
5: Bromegrass, Downy plant response rating ([5]; postemergence, 0-100 scale)
98: Plant response rating, Goosegrass [6, 18] | Plant response rating, Crabgrass, Large [8, 17] | Plant response rating, Crabgrass, Large [8, 18] | Plant response rating, Cupgrass, Woolly [13, 17]
90: Plant response rating, Cupgrass, Woolly [13, 16]
95: Plant response rating, Foxtail, Green [7, 16] | Plant response rating, Foxtail, Green [7, 17] | Foxtail, Green plant response rating [7, 24]
15: Plant response rating, Rice [14, 27]
65: Plant response rating, Goosegrass [6, 16] | Crabgrass, Large plant response rating [8, 22]
80: Cupgrass, Woolly plant response rating [13, 22] | Plant response rating, Rice [14, 28]
0: Plant response rating, Russian Thistle [1, 15] | Plant response rating, Russian Thistle ([1]; 62 g ai/ha, scale 0 to 100) | Russian Thistle plant response rating ([1]; 8 g ai/ha, scale 0 to 100) | Russian Thistle plant response rating ([1]; 16 g ai/ha, scale 0 to 100) | Plant response rating, Galium ([2]; 62 g ai/ha, scale 0 to 100) | Galium plant response rating ([2]; 8 g ai/ha, scale 0 to 100) | Galium plant response rating ([2]; 16 g ai/ha, scale 0 to 100) | Cocklebur plant response rating ([3]; postemergence, 0-100 scale) | Plant response rating, Cocklebur [3, 16] | Plant response rating, Cocklebur [3, 17] | Plant response rating, Cocklebur [3, 18] | Plant response rating, Cocklebur [3, 19] | Plant response rating, Cocklebur [3, 20] | Plant response rating, Cocklebur [3, 21] | Cocklebur plant response rating ([3]; Preemergence, scale 0 to 100) | Plant response rating, Sunflower [4, 15] | Plant response rating, Sunflower ([4]; 62 g ai/ha, scale 0 to 100) | Sunflower plant response rating ([4]; 8 g ai/ha, scale 0 to 100) | Sunflower plant response rating ([4]; 16 g ai/ha, scale 0 to 100) | Plant response rating, Bromegrass, Downy [5, 19] | Bromegrass, Downy plant response rating ([5]; Preemergence, scale 0 to 100) | Plant response rating, Goosegrass [6, 20] | Plant response rating, Goosegrass [6, 21] | Goosegrass plant response rating [6, 23] | Goosegrass plant response rating [6, 24] | Plant response rating, Crabgrass, Large [8, 20] | Plant response rating, Crabgrass, Large [8, 21] | Crabgrass, Large plant response rating [8, 23] | Crabgrass, Large plant response rating [8, 24] | Pigweed plant response rating [9, 22] | Plant response rating, Pigweed [9, 16] | Plant response rating, Pigweed [9, 17] | Plant response rating, Pigweed [9, 18] | Plant response rating, Pigweed [9, 25] | Plant response rating, Pigweed [9, 21] | Pigweed plant response rating [9, 23] | Pigweed plant response rating [9, 24] | Soybean plant response rating [10, 22] | Plant response rating, Soybean [10, 16] | Plant response rating, Soybean [10, 17] | Plant response rating, Soybean [10, 18] | Plant response rating, Soybean [10, 25] | Plant response rating, Soybean [10, 21] | Soybean plant response rating [10, 23] | Soybean plant response rating [10, 24] | Velvetleaf plant response rating [11, 22] | Plant response rating, Velvetleaf [11, 16] | Plant response rating, Velvetleaf [11, 17] | Plant response rating, Velvetleaf [11, 18] | Plant response rating, Velvetleaf [11, 25] | Plant response rating, Velvetleaf [11, 26] | Velvetleaf plant response rating [11, 23] | Velvetleaf plant response rating [11, 24] | Wheat plant response rating [12, 22] | Wheat plant response rating [12, 24] | Plant response rating, Cupgrass, Woolly [13, 20] | Plant response rating, Cupgrass, Woolly [13, 21] | Cupgrass, Woolly plant response rating [13, 23] | Cupgrass, Woolly plant response rating [13, 24]
55: Goosegrass plant response rating [6, 22] | Foxtail, Green plant response rating [7, 23]
50: Plant response rating, Bromegrass, Downy [5, 16] | Plant response rating, Bromegrass, Downy [5, 17] | Plant response rating, Wheat [12, 26]

Cc1cc(-c2ccc(Cl)cc2)nn1-c1c(OS(=O)(=O)c2ccc(Cl)s2)cnn(C)c1=O [Compound 55]
0: Plant response rating, Russian Thistle [1, 15] | Plant response rating, Russian Thistle ([1]; 62 g ai/ha, scale 0 to 100) | Russian Thistle plant response rating ([1]; 8 g ai/ha, scale 0 to 100) | Russian Thistle plant response rating ([1]; 16 g ai/ha, scale 0 to 100) | Plant response rating, Galium ([2]; 31 g ai/ha, 0 to 100 scale, 0 no effect, 100 complete control) | Plant response rating, Galium ([2]; 62 g ai/ha, scale 0 to 100) | Galium plant response rating ([2]; 8 g ai/ha, scale 0 to 100) | Plant response rating, Cocklebur [3, 20] | Plant response rating, Cocklebur [3, 21] | Cocklebur plant response rating ([3]; Preemergence, scale 0 to 100) | Plant response rating, Sunflower [4, 15] | Plant response rating, Sunflower ([4]; 62 g ai/ha, scale 0 to 100) | Sunflower plant response rating ([4]; 8 g ai/ha, scale 0 to 100) | Sunflower plant response rating ([4]; 16 g ai/ha, scale 0 to 100) | Plant response rating, Bromegrass, Downy [5, 19] | Bromegrass, Downy plant response rating ([5]; Preemergence, scale 0 to 100) | Foxtail, Green plant response rating [7, 23] | Plant response rating, Pigweed [9, 25] | Plant response rating, Pigweed [9, 21] | Pigweed plant response rating [9, 23] | Pigweed plant response rating [9, 24] | Plant response rating, Soybean [10, 25] | Plant response rating, Soybean [10, 21] | Soybean plant response rating [10, 23] | Soybean plant response rating [10, 24] | Plant response rating, Velvetleaf [11, 25] | Plant response rating, Velvetleaf [11, 26] | Velvetleaf plant response rating [11, 23] | Velvetleaf plant response rating [11, 24] | Plant response rating, Wheat [12, 25] | Wheat plant response rating [12, 24] | Plant response rating, Rice [14, 27] | Plant response rating, Rice ([14]; Flood (flooded paddy test), 125 g ai/ha, scale 0 to 100, 0 no effect, 100 complete control) | Plant response rating, Rice ([14]; Flood, 31 g ai/ha, scale 0 to 100)
98: Plant response rating, Goosegrass [6, 20] | Crabgrass, Large plant response rating [8, 24]
60: Plant response rating, Bromegrass, Downy [5, 21]
30: Plant response rating, Bromegrass, Downy [5, 20] | Plant response rating, Rice [14, 28]
100: Plant response rating, Goosegrass [6, 21] | Plant response rating, Foxtail, Green [7, 20] | Plant response rating, Foxtail, Green [7, 21] | Plant response rating, Crabgrass, Large [8, 20] | Plant response rating, Crabgrass, Large [8, 21] | Plant response rating, Cupgrass, Woolly [13, 20] | Plant response rating, Cupgrass, Woolly [13, 21]
20: Crabgrass, Large plant response rating [8, 23]
90: Goosegrass plant response rating [6, 24] | Foxtail, Green plant response rating [7, 24]
55: Goosegrass plant response rating [6, 23]
80: Cupgrass, Woolly plant response rating [13, 24]
15: Cupgrass, Woolly plant response rating [13, 23]
5: Plant response rating, Wheat [12, 26]
